Laboratory results: patent US20260027068A1, “METHODS OF ADM[…]-KETAMINE” (Perception Neuroscience, Inc., priority 2022, published 2026)

System: subjects with TRD
Experiment: Modified Observer's Assessment of Alertness/Sedation (MOAA/S)
Description: The Investigational Medicinal Product (IMP) R(−)-ketamine hydrochloride in sterile water for intravenous injection was investigated as an […] treatment of TRD. The International Union of Pure and Applied Chemistry (IUPAC) name is of the IMP is (2R)-2-(2-chlorophenyl)-2-(methylamino)cyclohexan-1-one. Subjects received the solution at either 30 mg or 60 mg dose, or a placebo. The IMP or placebo was administered on Day 1 as a single IV infusion via an electronic infusion pump over 40 minutes. The duration of study participation for each subject was up to 29 days including a screening period, a 3-day in-clinic visit, and 2 follow-up visits. 101 subjects were enrolled in approximately 20 study centers in the EU and the US.
The MOAA/S will were to determine if R(−)-ketamine causes the side effect of sedation and to what degree. Sedation was evaluated by the study staff using the MOAA/S. The observer recorded the subject's alertness pre-dose, every 20 minutes for first 2 hours post-dose, and at 4 and 6 hours after the start of the infusion.

[1] = 30 mg, 10 min post start of infusion, n 10
[2] = 30 mg, 20 min post start of infusion, n 33
[3] = 30 mg, 30 min post start of infusion, n 10
[4] = 30 mg, 40 min post start of infusion, n 33
[5] = 30 mg, 50 min post start of infusion, n 10
[6] = 30 mg, 1 hour 10 min post start of infusion, n 10
[7] = 30 mg, 1 hour 20 min post start of infusion, n 33
[8] = 30 mg, 1 hour 30 min post start of infusion, n 10
[9] = 30 mg, 1 hour 40 min post start of infusion, n 33
[10] = 30 mg, 1 hour 50 min post start of infusion, n 10
[11] = 30 mg, 1 hour post start of infusion, n 33
[12] = 30 mg, to 10 min post-start, n 10
[13] = 30 mg, to 20 min post-start, n 33
[14] = 30 mg, to 30 min post-start, n 10
[15] = 30 mg, to 40 min post-start, n 33
[16] = 30 mg, to 50 min post-start, n 10
[17] = 30 mg, to 1 hour 10 min post-start, n 10
[18] = 30 mg, to 1 hour 20 min post-start, n 33
[19] = 30 mg, to 1 hour 30 min post-start, n 10
[20] = 30 mg, to 1 hour 40 min post-start, n 33
[21] = 30 mg, to 1 hour 50 min post-start, n 10
[22] = 30 mg, to 1 hour post-start, n 33
[23] = 60 mg, 10 min post start of infusion, n 11
[24] = 60 mg, 20 min post start of infusion, n 35
[25] = 60 mg, 30 min post start of infusion, n 11
[26] = 60 mg, 40 min post start of infusion, n 35
[27] = 60 mg, 50 min post start of infusion, n 11
[28] = 60 mg, 1 hour 10 min post start of infusion, n 11
[29] = 60 mg, 1 hour 20 min post start of infusion, n 34
[30] = 60 mg, 1 hour 30 min post start of infusion, n 11
[31] = 60 mg, 1 hour 40 min post start of infusion, n 35
[32] = 60 mg, 1 hour 50 min post start of infusion, n 11
[33] = 60 mg, 1 hour post start of infusion, n 35
[34] = 60 mg, to 10 min post-start, n 11
[35] = 60 mg, to 20 min post-start, n 35
[36] = 60 mg, to 30 min post-start, n 11
[37] = 60 mg, to 40 min post-start, n 35
[38] = 60 mg, to 50 min post-start, n 11
[39] = 60 mg, to 1 hour 10 min post-start, n 11
[40] = 60 mg, to 1 hour 20 min post-start, n 34
[41] = 60 mg, to 1 hour 30 min post-start, n 11
[42] = 60 mg, to 1 hour 40 min post-start, n 35
[43] = 60 mg, to 1 hour 50 min post-start, n 11
[44] = 60 mg, to 1 hour post-start, n 35

CN[C@@]1(c2ccccc2Cl)CCCCC1=O [PCN 101]
MOAA/S score, Mean [1]: 5.0
MOAA/S score, Median [1]: 5.0
MOAA/S score, Mean [2]: 4.9
MOAA/S score, Median [2]: 5.0
MOAA/S score, Mean [3]: 4.9
MOAA/S score, Median [3]: 5.0
MOAA/S score, Mean [4]: 4.8
MOAA/S score, Median [4]: 5.0
MOAA/S score, Mean [5]: 4.9
MOAA/S score, Median [5]: 5.0
MOAA/S score, Mean [6]: 5.0
MOAA/S score, Median [6]: 5.0
MOAA/S score, Mean [7]: 4.8
MOAA/S score, Median [7]: 5.0
MOAA/S score, Mean [8]: 5.0
MOAA/S score, Median [8]: 5.0
MOAA/S score, Mean [9]: 4.9
MOAA/S score, Median [9]: 5.0
MOAA/S score, Mean [10]: 5.0
MOAA/S score, Median [10]: 5.0
MOAA/S score, Mean [11]: 4.8
MOAA/S score, Median [11]: 5.0
MOAA/S score, Mean (30 mg, 2 hours, n 33): 5.0
MOAA/S score, Median (30 mg, 2 hours, n 33): 5.0
MOAA/S score, Mean (30 mg, 4 hours, n 31): 5.0
MOAA/S score, Median (30 mg, 4 hours, n 31): 5.0
MOAA/S score, Mean (30 mg, 6 hours, n 31): 5.0
MOAA/S score, Median (30 mg, 6 hours, n 31): 5.0
MOAA/S change from baseline, Mean [12]: 0.0
MOAA/S change from baseline, Median [12]: 0.0
MOAA/S change from baseline, Mean [13]: −0.1
MOAA/S change from baseline, Median [13]: 0.0
MOAA/S change from baseline, Mean [14]: −0.1
MOAA/S change from baseline, Median [14]: 0.0
MOAA/S change from baseline, Mean [15]: −0.2
MOAA/S change from baseline, Median [15]: 0.0
MOAA/S change from baseline, Mean [16]: −0.1
MOAA/S change from baseline, Median [16]: 0.0
MOAA/S change from baseline, Mean [17]: 0.0
MOAA/S change from baseline, Median [17]: 0.0
MOAA/S change from baseline, Mean [18]: −0.2
MOAA/S change from baseline, Median [18]: 0.0
MOAA/S change from baseline, Mean [19]: 0.0
MOAA/S change from baseline, Median [19]: 0.0
MOAA/S change from baseline, Mean [20]: −0.1
MOAA/S change from baseline, Median [20]: 0.0
MOAA/S change from baseline, Mean [21]: 0.0
MOAA/S change from baseline, Median [21]: 0.0
MOAA/S change from baseline, Mean [22]: −0.2
MOAA/S change from baseline, Median [22]: 0.0
MOAA/S change from baseline, Mean (30 mg, to 2 hours, n 33): −0.0
MOAA/S change from baseline, Median (30 mg, to 2 hours, n 33): 0.0
MOAA/S change from baseline, Mean (30 mg, to 4 hours, n 31): 0.0
MOAA/S change from baseline, Median (30 mg, to 4 hours, n 31): 0.0
MOAA/S change from baseline, Mean (30 mg, to 6 hours, n 31): 0.0
MOAA/S change from baseline, Median (30 mg, to 6 hours, n 31): 0.0
MOAA/S score, Mean [23]: 4.9
MOAA/S score, Median [23]: 5.0
MOAA/S score, Mean [24]: 4.8
MOAA/S score, Median [24]: 5.0
MOAA/S score, Mean [25]: 4.9
MOAA/S score, Median [25]: 5.0
MOAA/S score, Mean [26]: 4.8
MOAA/S score, Median [26]: 5.0
MOAA/S score, Mean [27]: 4.9
MOAA/S score, Median [27]: 5.0
MOAA/S score, Mean [28]: 5.0
MOAA/S score, Median [28]: 5.0
MOAA/S score, Mean [29]: 4.8
MOAA/S score, Median [29]: 5.0
MOAA/S score, Mean [30]: 5.0
MOAA/S score, Median [30]: 5.0
MOAA/S score, Mean [31]: 4.8
MOAA/S score, Median [31]: 5.0
MOAA/S score, Mean [32]: 5.0
MOAA/S score, Median [32]: 5.0
MOAA/S score, Mean [33]: 4.8
MOAA/S score, Median [33]: 5.0
MOAA/S score, Mean (60 mg, 2 hours, n 35): 4.8
MOAA/S score, Median (60 mg, 2 hours, n 35): 5.0
MOAA/S score, Mean (60 mg, 4 hours, n 32): 4.9
MOAA/S score, Median (60 mg, 4 hours, n 32): 5.0
MOAA/S score, Mean (60 mg, 6 hours, n 32): 5.0
MOAA/S score, Median (60 mg, 6 hours, n 32): 5.0
MOAA/S change from baseline, Mean [34]: −0.1
MOAA/S change from baseline, Median [34]: 0.0
MOAA/S change from baseline, Mean [35]: −0.2
MOAA/S change from baseline, Median [35]: 0.0
MOAA/S change from baseline, Mean [36]: −0.1
MOAA/S change from baseline, Median [36]: 0.0
MOAA/S change from baseline, Mean [37]: −0.2
MOAA/S change from baseline, Median [37]: 0.0
MOAA/S change from baseline, Mean [38]: −0.1
MOAA/S change from baseline, Median [38]: 0.0
MOAA/S change from baseline, Mean [39]: 0.0
MOAA/S change from baseline, Median [39]: 0.0
MOAA/S change from baseline, Mean [40]: −0.2
MOAA/S change from baseline, Median [40]: 0.0
MOAA/S change from baseline, Mean [41]: 0.0
MOAA/S change from baseline, Median [41]: 0.0
MOAA/S change from baseline, Mean [42]: −0.2
MOAA/S change from baseline, Median [42]: 0.0
MOAA/S change from baseline, Mean [43]: 0.0
MOAA/S change from baseline, Median [43]: 0.0
MOAA/S change from baseline, Mean [44]: −0.2
MOAA/S change from baseline, Median [44]: 0.0
MOAA/S change from baseline, Mean (60 mg, to 2 hours, n 35): −0.2
MOAA/S change from baseline, Median (60 mg, to 2 hours, n 35): 0.0
MOAA/S change from baseline, Mean (60 mg, to 4 hours, n 32): −0.1
MOAA/S change from baseline, Median (60 mg, to 4 hours, n 32): 0.0
MOAA/S change from baseline, Mean (60 mg, to 6 hours, n 32): 0.0
MOAA/S change from baseline, Median (60 mg, to 6 hours, n 32): 0.0

CN[C@@]1(c2ccccc2Cl)CCCCC1=O.Cl [R(−)-ketamine, (2R)-2-(2-chlorophenyl)-2-(methylamino)cyclohexan-1-one]
Subjects with post-baseline MOASS <5, number (30 mg (n = 33)): 9 n
Subjects with post-baseline MOASS <5, percent (30 mg (n = 33)): (27.3) %
Subjects with post-baseline MOASS <5, number (60 mg (n = 35)): 12 n
Subjects with post-baseline MOASS <5, percent (60 mg (n = 35)): (34.3) %
